Measured values published in patent US12667118B2, “Compositions comprising algae and methods of using same for increasing animal product production” (BLUE OCEAN BARNS, priority 2020, dated 2026).
Where two headings read alike, the source gives them in different places.

What was measured:
[1] = tested on: dairy cattle; assay: Tolerability limits: intake limits of minerals for dairy cattle; assay type: in vivo
[2] = tested on: dairy cattle; settings: cited from earlier work
[3] = tested on: dairy cattle; assay: Methane intensity versus normalized bromoform intake (Asparagopsis quantity calculation); assay type: in vivo; settings: regression constant
Protocol: In still another embodiment, a regression constant is determined. The regression constant relates the amount of bromoform required to achieve a set percentage of methane reduction per amount of neutral detergent fiber present in the animal's diet. Thus, the algorithm comprises the steps of: i) Determining the target methane reduction percentage and subsequently the target absolute reduction (g CH4/kg milk); ii) Determining cow's NDF intake, based on dry matter intake (DMI) and NDF proportion; iii) Determining the normalized bromoform concentration required (equivalent to the desired absolute reduction divided by the regression constant, where the regression constant is the Reduction in methane intensity (g CH4/kg milk) per unit normalized bromoform intake (mg/kg of NDF); iv) Multiplying by the NDF intake to determine the required bromoform concentration (mg) and v) Dividing by the bromoform concentration in that seaweed to determine amount of seaweed required.

[4] = In vivo fate of bromoform delivered from red macroalgae feed supplement; parameters: species or system livestock
[5] = tested on: livestock rumens; assay: Rumen propionate:acetate ratio and meat trans fat in livestock fed red algae; settings: in vitro and in vivo testing
Text: It is known that bromoform is safely and usefully degraded in anaerobic environments like livestock rumens where the enzyme methyl-coenzyme M reductase is present.

[6] = dairy cattle, at the maximum allowable limit

Row | Compound | Intake for a Cow Consuming 20.14 kg DM/day ([1]; bovine, in vivo) | Maximum Allowable Component Intake Limit per Daily kg of DM Consumption ([2]; bovine, in vivo) | Intake for a Cow Consuming 20.14 kg DM/day [1, 6] | Maximum Allowable Component Intake Limit per Daily kg of DM Consumption ([2]; dairy cattle) | also measured
1 | [Al] [Aluminum] | 20140 mg/day | 1000 mg/kg DMI |  |  | 
2 | [B] [Boron] | 3021 mg/day | 150 mg/kg DMI |  |  | 
3 | [Cd] [Cadmium] |  |  | 201 mg/day | 10 mg/kg DMI | 
4 | [Ca+2] [Calcium] |  |  | 302100 mg/day | 15000 mg/kg DMI | 
5 | [Cr] [Chromium] |  |  | 2014 mg/day | 100 mg/kg DMI | 
6 | [Co] [Cobalt] |  |  | 504 mg/day | 25 mg/kg DMI | 
7 | [Fe] [Iron] | 10070 mg/day | 500 mg/kg DMI |  |  | 
8 | [Pb] [Lead] |  |  | 2014 mg/day | 100 mg/kg DMI | 
9 | [Mg+2] [Magnesium] | 120840 mg/day |  |  | 6000 mg/kg DMI | 
10 | [Mn+2] [Manganese] |  |  | 40280 mg/day | 2000 mg/kg DMI | 
11 | [Mo] [Molybdenum] | 101 mg/day | 5 mg/kg DMI |  |  | 
12 | [K+] [Potassium] | 402800 mg/day | 20000 mg/kg DMI |  |  | 
13 | [Se] [Selenium] |  | 5 mg/kg DMI | 101 mg/day |  | 
14 | S1SSSSSSS1 [Sulfur] |  |  | 60420 mg/day | 3000 mg/kg DMI | 
15 | [Zn] [Zinc] |  |  | 10070 mg/day | 500 mg/kg DMI | 
16 | BrC(Br)Br [bromoform] |  |  |  |  | Slope-Reduction in methane intensity (g CH4/kg milk) per normalized unit bromoform intake (mg/kg of NDF) [3]: −0.049 g CH4/kg milk per mg/kg of NDF; absorption of bromoform into rumen wall or other organs [4]: not absorbed into the rumen wall, or other organs; bromoform in milk, meat or manure [4]: not found; propionate:acetate ratios in livestock rumens [5]: increases the propionate:acetate ratios
17 | Arsenic |  |  | 604 mg/day | 30 mg/kg DMI | 
18 | Copper | 806 mg/day | 40 mg/kg DMI |  |  | 
19 | Phosphorous | 140980 mg/day | 7000 mg/kg DMI |  |  | 
20 | Sodium |  |  | 1706704 mg/day | 84742 mg/kg DMI | 
